System: IL-1β release from THP-1 cells
Assay: IL-1β release assay
Format: cell-based
Conditions: Homo sapiens; PMA-treated THP-1 cells, 250 ng/mL LPS then 20 μM nigericin; cleaved IL-1β in media
Experimental: Approximately 1.5 million THP-1 cells were plated in each well of a 6-well TC plate and incubated with 40 nM PMA in RPMI (10% FBS, 1% Penstrep) for 24 hours. The media was then removed and cells were rested in RPMI (10% FBS, 1% Penstrep) for 24 hours after which time the media was removed and cells were pre-treated for 2 hours with various concentrations of compounds of interest (typically serial 3-fold dilution in RPMI+5% FBS, concentrations ranging from 1 μM to 0.5 nM) in RPMI (5% FBS). The media was again removed and cells were incubated with 250 ng/mL LPS and compounds of interest (concentrations as above) in RMPI (5% FBS) for 2 hours. The media was removed for a last time and cells were incubated with 20 μM nigericin and compounds of interest (concentrations as above) in Opti-MEM for 30 minutes. Cell media was then collected and the amount of cleaved IL-1β was determined using a JESS instrument (Protein Simple) and standard protocols. Cleaved Il-1β antibody was obtained from Cell Signaling (catalogue #83186S) and was used at 1:20 dilution in antibody diluent 2. Protein Simple 1× anti-Rabbit HRP secondary antibody was used along with Protein Simple luminol and peroxide for chemiluminescent detection. Primary antibody incubation time was increased from 30 minutes to 60 minutes.

Structure (SMILES): O=C(Nc1ccc(Oc2ccnc3[nH]cc(Cl)c23)cc1F)Nc1cc(C2CC2)nn1-c1ccccc1 [Compound I-11, 1-(4-((3-chloro-1H-pyrrolo[2,3-b]pyridin-4-yl)oxy)-2-fluorophenyl)-3-(3-cyclopropyl-1-phenyl-1H-pyrazol-5-yl)urea]
- IC50: > 1000 nM

Source: patent publication US20240400551A1, “NEK7 INHIBITORS” (HALIA THERAPEUTICS, INC., priority 2021, published 2024)
